Results reported in patent US20200087314A1, “HISTONE DEACETYLASE INHIBITORS” (BIOMARIN PHARMACEUTICAL INC., priority 2016, published 2020).

These compounds were tested on Frataxin (FXN) mRNA expression (assay: Effect of HDAC inhibitors on frataxin (FXN) mRNA expression in iPSC derived neuronal cells (qRT-PCR)). Details: iPSC derived neuronal cells differentiated 16 days, compound incubated 24 h.
Type: cell-based
Method: Effect of HDAC Inhibitors on Frataxin (FXN) mRNA Expression
Method: mRNA quantification of compound-treated iPSC derived neuronal cells Neuronal stem cells were cultured in Neurobasal A medium (Life technologies #10888022) supplemented with N2, B27 (Life technologies #17502-048 and #17504-044), L-glutamine (Life technologies #25030081), supplemented with 20 ng/ml EGF (R&D Systems #236-EG) and 20 ng/ml bFGF (BioPioneer # HRP-0011). Neuronal differentiation was initiated by removing growth factors and culturing cells in Neurobasal A with N2 and B27. Cells were allowed to differentiate for 16 days. HDAC inhibitory compound was then added and incubate for 24 h. RNA isolation was performed using the RNeasy Plus mini kit (QIAgen #74134) using a QIAcube instrument per manufacturer's instructions. qRT-PCR was performed using qScript One-Step SYBR Green qRT-PCR Kit (Quanta Biosciences 170-8893BR) with the following conditions: 20 minutes at 50° C., 5 minutes at 95° C., and then 40 cycles of 20 seconds at 95° C., 20 seconds at 55° C., 30 seconds at 72° C. The primer sequences to detect expression of FXN were: 5′-[…]-3′ and 5′-[…]-3′.
Data for additional compounds for iPSC fold inductions and cLogP are shown in Table 4 The ranges reported for cLogP refer to the following. A<1, 1<B<2, 2<C<3, 3<D<5, E>5. NA refers to “not available.”

SMILES | Fold Induction
CC(C)(O)CN1CCC(Cc2ccc(C(=O)Nc3ccc(F)cc3N)cc2)CC1 [Compound 161, N-(2-amino-4-fluorophenyl)-4-((1-(2-hydroxy-2-methylpropyl)piperidin-4-yl)methyl)benzamide] | 1.2
C[C@@H]1CN(Cc2ccc(C(=O)Nc3ccccc3N)cc2)C[C@H](C)N1CC1CC1 [Compound 487, N-(2-aminophenyl)-4-(((3R,5S)-4-(cyclopropylmethyl)-3,5-dimethylpiperazin-1-yl)methyl)benzamide] | 1.3
Nc1ccccc1NC(=O)c1ccc(CN2CC3(CNC3)C2)cc1 [Compound 241, 4-((2,6-diazaspiro[3.3]heptan-2-yl)methyl)-N-(2-aminophenyl)benzamide] | 1.9
CC(C)(O)CN1CCC(Cc2ccc(C(=O)Nc3ccccc3N)cc2)CC1(C)C (stereo not shown) [Compound 357, N-(2-aminophenyl)-4-((1-(2-hydroxy-2-methylpropyl)-2,2-dimethylpiperidin-4-yl)methyl)benzamide] | 1.7
Nc1ccccc1NC(=O)c1ccc(CC2CCN(CC34CC5CC(CC(C5)C3)C4)CC2)cc1 [Compound 354, 4-((1-(((3r,5r,7r)-adamantan-1-yl)methyl)piperidin-4-yl)methyl)-N-(2-aminophenyl)benzamide] | 1.9
C[C@@H]1CN(Cc2ccc(C(=O)Nc3ccccc3N)cc2)C[C@H](C)N1CC(C)(C)O [Compound 488, N-(2-aminophenyl)-4-(((3R,5S)-4-(2-hydroxy-2-methylpropyl)-3,5-dimethylpiperazin-1-yl)methyl)benzamide] | 1.5
Cl.Cl.Nc1ccccc1NC(=O)c1ccc(CN2CCCCC2)cc1 [Compound 171, N-(2-aminophenyl)-4-(piperidin-1-ylmethyl)benzamide] | 0.9
CC1(C)CC(Cc2ccc(C(=O)Nc3ccccc3N)cc2)CCN1CC1CC1 (stereo not shown) [Compound 356, N-(2-aminophenyl)-4-((1-(cyclopropylmethyl)-2,2-dimethylpiperidin-4-yl)methyl)benzamide] | 2.0
CC1(C)CN(Cc2ccc(C(=O)Nc3ccccc3N)cc2)CCN1CC1CC1 [Compound 483, N-(2-aminophenyl)-4-((4-(cyclopropylmethyl)-3,3-dimethylpiperazin-1-yl)methyl)benzamide] | 1.7
CC1(C)CC(Cc2ccc(C(=O)Nc3ccccc3N)cc2)CCN1 (stereo not shown) [Compound 359, N-(2-aminophenyl)-4-((2,2-dimethylpiperidin-4-yl)methyl)benzamide] | 1.9
C[C@H]1CN(CC(C)(C)O)CCN1Cc1ccc(C(=O)Nc2ccccc2N)cc1 [Compound 482, (S)-N-(2-aminophenyl)-4-((4-(2-hydroxy-2-methylpropyl)-2-methylpiperazin-1-yl)methyl)benzamide] | 1.7
CC1(C)CN(CC2CC2)CCN1Cc1ccc(C(=O)Nc2ccccc2N)cc1 [Compound 491, N-(2-aminophenyl)-4-((4-(cyclopropylmethyl)-2,2-dimethylpiperazin-1-yl)methyl)benzamide] | 1.7
CC(C)(O)CC1CCN(Cc2ccc(C(=O)Nc3ccccc3N)cc2)CC1 [Compound 181, N-(2-aminophenyl)-4-((4-(2-hydroxy-2-methylpropyl)piperidin-1-yl)methyl)benzamide] | 1.5
Cl.Cl.Nc1ccccc1NC(=O)c1ccc(CN2CCC3(CCCCC3)CC2)cc1 [Compound 174, 4-((3-azaspiro[5.5]undecan-3-yl)methyl)-N-(2-aminophenyl)benzamide] | 1.1
CC(C)(O)CN1CCN(Cc2ccc(C(=O)Nc3ccccc3N)cc2)C(C)(C)C1 [Compound 492, N-(2-aminophenyl)-4-((4-(2-hydroxy-2-methylpropyl)-2,2-dimethylpiperazin-1-yl)methyl)benzamide] | 1.2
Nc1ccccc1NC(=O)c1ccc(CN2CCC2)cc1 [Compound 176, N-(2-aminophenyl)-4-(azetidin-1-ylmethyl)benzamide] | 1.5
